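All cell lines were grown in 96-well plates and treated with compound for 48 hours. GI50 is the concentration that inhibits growth by half.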 Calls of active or inactive are those of the source. Rule as the data show it: active = GI50 up to about 1.1 µM and inactive = higher.
Assays:
Assay in all cases: inhibition of tumour cell growth, NCI panel, 48 h
[1] = system: CCRF-CEM
[2] = system: UO-31
[3] = system: SF-268
[4] = system: NCI-H23
[5] = system: OVCAR-4
[6] = system: LOX IMVI
[7] = system: KM12
[8] = system: HT-29
[9] = system: HOP-62
[10] = system: RXF 393
[11] = system: HOP-92
[12] = system: CAKI-1
[13] = system: UACC-62
[14] = system: ACHN
[15] = system: MOLT-4
[16] = system: TK-10
[17] = system: NCI-H460
[18] = system: SR
[19] = system: PC-3

Measured: GI50

CCOC(=O)C12C(C(=O)OC)=C(C)N(NC(=O)Nc3ccccc3)C1(N)N(NC(=O)Nc1ccccc1)C(C)=C2C(=O)OC (stereo unspecified)
inactive: [1] 23.7 µM | [2] 40 µM | [3] 31.3 µM | [4] 37.4 µM | [5] 39.8 µM | [6] 17 µM | [7] 19.2 µM | [8] 24.5 µM | [9] 20.5 µM | [10] 29.2 µM | [11] 24.9 µM | [12] 34.9 µM | [13] 18 µM | [14] 34.1 µM | [15] 17.9 µM | [16] 36.1 µM | [17] 40.3 µM | [18] 22 µM

O=C(COc1ccc(OCC(=O)N2C(=O)CN(c3ccc(Cl)cc3)C2=S)cc1)N1C(=O)CN(c2ccc(Cl)cc2)C1=S
inactive: [2] 29 µM | [19] 23.9 µM | [3] 27.2 µM | [4] 32.5 µM | [5] 25.9 µM | [7] 18.9 µM | [8] 31.4 µM | [10] 22.8 µM | [11] 21.8 µM | [12] 19.6 µM | [13] 16.5 µM | [14] 26.4 µM | [15] 33.7 µM | [16] 24.4 µM | [17] 23.3 µM

CSC(=S)c1ccc(C(=S)SC)cc1
inactive: [2] > 100 µM | [3] > 100 µM | [4] > 100 µM | [5] > 100 µM | [6] > 100 µM | [7] > 100 µM | [8] > 100 µM | [9] > 100 µM | [10] > 100 µM | [11] > 100 µM | [12] > 100 µM | [13] > 100 µM | [15] > 100 µM | [16] > 100 µM | [17] > 100 µM | [18] > 100 µM

O=C1c2ccccc2C(=O)N1/N=C\c1ccc(Br)cc1
inactive: [1] > 10 µM | [2] > 10 µM | [3] > 10 µM | [4] > 10 µM | [5] > 10 µM | [6] > 10 µM | [7] > 10 µM | [8] > 10 µM | [9] > 10 µM | [10] > 10 µM | [11] > 10 µM | [12] > 10 µM | [13] > 10 µM | [14] > 10 µM | [15] > 10 µM | [16] > 10 µM | [17] > 10 µM | [18] > 10 µM

O=C(NCC(O)CNC(=O)C(F)(F)F)C(F)(F)F
inactive: [1] > 100 µM | [2] > 100 µM | [3] > 100 µM | [4] > 100 µM | [5] > 100 µM | [6] > 100 µM | [7] > 100 µM | [8] > 100 µM | [9] > 100 µM | [10] > 100 µM | [11] > 100 µM | [12] > 100 µM | [13] > 100 µM | [15] > 100 µM | [16] > 100 µM | [17] > 100 µM | [18] > 100 µM

CC(C)N(C(=O)C12C3C4C5(C#N)C3C1(I)C5C42I)C(C)C (stereo unspecified)
inactive: [1] > 44.3 µM | [2] > 100 µM | [3] > 100 µM | [4] > 100 µM | [5] > 45.5 µM | [6] > 40.3 µM | [7] > 100 µM | [8] > 73.8 µM | [9] > 100 µM | [10] > 100 µM | [11] > 100 µM | [12] > 100 µM | [13] > 100 µM | [14] > 100 µM | [15] > 100 µM | [16] > 100 µM | [17] > 78 µM | [18] 37.8 µM

O=C(CCN1CCCCC1CO)Nc1ccc2c(c1)C(=O)c1ccc(NC(=O)CCN3CCCCC3CO)cc1C2=O (stereo unspecified)
inactive: [1] 3.61 µM | [2] 13.8 µM | [3] 10 µM | [4] 17 µM | [5] 11.5 µM | [6] 6.93 µM | [7] 4.34 µM | [8] 11.4 µM | [9] 14.5 µM | [10] 2 µM | [11] 15.5 µM | [12] 13.5 µM | [13] 8.95 µM | [14] 11.8 µM | [15] 8.39 µM | [16] 8.3 µM | [17] 6.58 µM | [18] 10.7 µM

Cn1c(N)nc(=O)c2c1N(C1OC(CO)C(O)C1O)CN2Cc1ccccc1 (stereo unspecified)
inactive: [2] > 100 µM | [3] > 100 µM | [4] > 100 µM | [5] > 100 µM | [7] > 100 µM | [8] > 100 µM | [9] > 100 µM | [10] > 100 µM | [11] > 100 µM | [12] > 100 µM | [13] > 100 µM | [14] > 100 µM | [15] > 100 µM | [16] > 100 µM | [17] > 100 µM | [18] > 100 µM

From ChEMBL document CHEMBL1201862, “PubChem BioAssay data set” (2004)
